Test results: publication PMC6650409, “Modeling the binding of diverse ligands within the Ah receptor ligand binding domain” (Scientific Reports, 2019)
Residue numbers refer to the chain shown, from its start. Like-named read-outs stand apart in the source and are kept apart here.

How the values were obtained:
[1] = molecular target: T1, mAhR (Mus musculus, UniProt P30561); test: biochemical; conditions: wild-type mAhR
T1 construct: made in house; host or cells: in vitro transcription/translation (rabbit reticulocyte lysate)
Description: Wild-type and mutant mAhRs and mARNT were synthesized in vitro in the presence of unlabeled L-methionine, the resulting mAhRs and mARNT translation mixtures and MEDGK (25 mM MOPS (3-(N-morpholino)propanesulfonic acid; pH 7.5), 1 mM EDTA, 1 mM dithiothreitol, 10% (v/v) glycerol, 150 mM KCl) were mixed in a 1:1:8 (v/v/v) ratio and incubated with DMSO (1% final concentration) or the indicated concentration of TCDD or test chemical for 2 hours at room temperature. An aliquot of each incubation was mixed with [^32P]-labeled double-stranded oligonucleotide containing the mouse AhR DNA binding site DRE3 (a dioxin responsive element from the upstream region of the murine Cyp1a1 gene[71]) and protein-DNA complexes resolved by gel retardation analysis as previously described in detail. Gels were visualized using a FLA9000 Fujifilm Imager and protein-DNA complexes quantitated with Fujifilm MultiGauge software. For potency measurements, reactions were incubated with increasing concentrations of the test chemical and the chemical concentration producing half maximal AhR:ARNT:DRE complex formation (EC50) determined.
T1 sequence (P53762 whole entry partner, one chain of several): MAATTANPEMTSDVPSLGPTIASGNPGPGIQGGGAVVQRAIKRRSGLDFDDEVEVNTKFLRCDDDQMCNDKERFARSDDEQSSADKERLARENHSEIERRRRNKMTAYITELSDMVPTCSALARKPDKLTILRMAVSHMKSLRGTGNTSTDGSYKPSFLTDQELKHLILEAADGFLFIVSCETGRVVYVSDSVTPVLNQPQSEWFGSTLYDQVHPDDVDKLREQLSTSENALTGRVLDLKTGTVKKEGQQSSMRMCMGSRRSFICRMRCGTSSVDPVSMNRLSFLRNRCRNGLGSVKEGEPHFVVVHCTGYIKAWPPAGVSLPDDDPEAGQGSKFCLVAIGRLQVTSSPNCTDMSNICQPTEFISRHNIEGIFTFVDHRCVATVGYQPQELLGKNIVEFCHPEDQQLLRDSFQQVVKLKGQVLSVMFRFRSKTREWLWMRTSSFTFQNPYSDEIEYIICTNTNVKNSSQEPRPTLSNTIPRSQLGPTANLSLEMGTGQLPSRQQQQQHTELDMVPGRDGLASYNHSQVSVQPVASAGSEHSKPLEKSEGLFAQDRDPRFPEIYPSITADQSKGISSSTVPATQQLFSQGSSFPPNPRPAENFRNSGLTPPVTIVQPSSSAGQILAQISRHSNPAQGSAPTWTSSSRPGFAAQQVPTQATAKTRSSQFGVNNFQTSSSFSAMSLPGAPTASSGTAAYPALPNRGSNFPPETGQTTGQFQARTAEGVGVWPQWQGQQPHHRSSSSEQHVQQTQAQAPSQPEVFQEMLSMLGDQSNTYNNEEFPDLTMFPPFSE

[2] = molecular target: T2, mAhR (Mus musculus, UniProt P30561); test: biochemical; type: binding
T2 construct: made in house; host or cells: in vitro, Promega TNT Quick coupled transcription/translation rabbit reticulocyte lysate
T2 sequence (P30561 10-848): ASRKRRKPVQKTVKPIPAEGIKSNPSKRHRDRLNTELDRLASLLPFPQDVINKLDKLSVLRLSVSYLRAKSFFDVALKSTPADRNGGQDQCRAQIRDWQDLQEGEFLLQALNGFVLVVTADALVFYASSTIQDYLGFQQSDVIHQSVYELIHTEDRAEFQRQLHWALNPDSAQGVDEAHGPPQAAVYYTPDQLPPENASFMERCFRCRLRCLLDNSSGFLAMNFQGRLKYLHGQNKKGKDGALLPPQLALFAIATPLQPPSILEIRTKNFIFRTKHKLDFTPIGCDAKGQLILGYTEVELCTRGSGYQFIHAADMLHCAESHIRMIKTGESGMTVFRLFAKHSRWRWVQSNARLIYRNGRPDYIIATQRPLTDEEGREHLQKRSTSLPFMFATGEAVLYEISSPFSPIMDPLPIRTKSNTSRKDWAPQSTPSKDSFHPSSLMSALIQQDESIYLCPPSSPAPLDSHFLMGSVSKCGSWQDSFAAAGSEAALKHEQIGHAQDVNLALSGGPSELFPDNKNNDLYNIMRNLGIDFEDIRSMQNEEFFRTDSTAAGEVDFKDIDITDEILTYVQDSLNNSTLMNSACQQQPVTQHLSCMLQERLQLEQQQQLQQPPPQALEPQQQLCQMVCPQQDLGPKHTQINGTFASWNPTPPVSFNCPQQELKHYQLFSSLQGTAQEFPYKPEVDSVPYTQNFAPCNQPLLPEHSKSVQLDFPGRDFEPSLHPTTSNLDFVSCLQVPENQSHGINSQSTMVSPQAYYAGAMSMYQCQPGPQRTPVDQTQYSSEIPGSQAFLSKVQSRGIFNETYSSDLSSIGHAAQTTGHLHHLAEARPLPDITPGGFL
Description: (§1) [^3H]TCDD specific binding to wild-type or mutant mAhRs synthesized in vitro using the Promega TNT Quick coupled transcription/translation rabbit reticulocyte lysate kit (Madison, WI) was carried out as previously described. [^3H]TCDD specific binding was determined by subtracting the amount of [^3H]TCDD bound to unprogrammed lysate (nonspecific binding) from the total amount of [^3H]TCDD binding to lysate containing in vitro expressed AhR. The amount of [^3H]TCDD specific binding remaining in the presence of the indicated competitor chemical was expressed as a percent of the total [^3H]TCDD specific binding. The relative binding affinity (IC50) of each chemical was determined from concentration-dependent competitive inhibition curves obtained using [^3H]TCDD and increasing concentrations of each test chemical and the mean IC50 value was determined using three-parameter non-linear regression.

[3] = molecular target: T3, M342A mutant AhR (Mus musculus, UniProt P30561, M342A); test: [3H]TCDD competitive ligand binding, M342A mutant AhR; conditions: for change of relative binding affinity versus wild-type AhR: M342A substitution, in words; for IC50: Table S6, AhR mutant M342A
T3 construct: made in house; host or cells: in vitro, Promega TNT Quick rabbit reticulocyte lysate
T3 sequence (P30561 10-848 M342A): T2 sequence (P30561 10-848) with M333A
Description: The mouse AhR (mAhR) and ARNT (mARNT) expression plasmids, mβAhR/pcDNA3 and mβArnt/pcDNA3, have been previously described. Point mutations of mβAhR/pcDNA3 were carried out using the QuikChange Lightning Mutagenesis Kit (Agilent Technologies) and all constructs were verified by sequencing.
as §1

[4] = Table S1, mean of nine independent reactions, read-out: AhR DNAB EC50
[5] = gel retardation, values in text, read-out: relative potency to stimulate AhR DNA binding in vitro (EC50)
[6] = Table S1, wild-type mAhR, mean of nine independent reactions, read-out: AhR LB IC50
[7] = competition with [3H]TCDD, wild-type mAhR, values in text, read-out: relative AhR ligand binding affinity (IC50)
[8] = Table S1, read-out: AhR DNAB -LogEC50 (converted)

SMILES | EC50 [1, 4] | EC50 [1, 5] | IC50 [2, 6] | IC50 ([2]; Table S1, wild-type mAhR, read-out: AhR LB -LogIC50 (converted)) | change of relative binding affinity versus wild-type AhR [3] | IC50 [3] | IC50 [2, 7] | EC50 [1, 8] | EC50 ([1]; AhR DNAB EC50, Table S1, mean of nine independent reactions) | EC50 ([1]; relative potency to stimulate AhR DNA binding in vitro (EC50), gel retardation, values in text) | IC50 [2]
Clc1cc2oc3cc(Cl)c(Cl)cc3c2cc1Cl [TCDF, 2,3,7,8-tetrachlorodibenzofuran] | 4.55 nM | 4.5 nM | 20.1 nM | 20 nM | – | – | – | – | – | – | –
Clc1ccc(-c2cc(Cl)c(Cl)c(Cl)c2)cc1Cl [PCB126, 3,3′4,4′5-pentachlorobiphenyl] | 6.51 nM | 6.5 nM | 5.89 nM | – | reduced | 9.33 nM | 5.9 nM | – | – | – | –
c1ccc2c(c1)cc1ccc3cccc4ccc2c1c34 [BaP, Benzo(a)pyrene] | 38.9 nM | 39 nM | – | – | – | – | 617 nM | – | – | – | –
Cc1ccc2cc3c(ccc4ccccc43)c3c2c1CC3 [3MC, 3-methylcholanthrene] | – | – | 1.58 nM | – | reduced | 248 nM | 1.6 nM | 6.03 nM | – | – | –
c1ccc2c(c1)ccc1cc3c(ccc4ccccc43)cc12 [DBA, dibenz(a,h)anthracene] | 4.02 nM | – | – | – | not affected | 6.72 nM | 7.6 nM | 3.98 nM | – | – | –
O=Cc1c2[nH]c3ccccc3c2cc2[nH]c3ccccc3c12 [FICZ, 6-formylindolo[3,2-b]carbazole] | – | 4.25 nM | 1.02 nM | – | – | 0.0207 nM | 1 nM | – | – | – | –
O=c1cc(-c2ccccc2)oc2ccc3ccccc3c12 [BNF] | – | 138 nM | 7.24 nM | – | not affected | 9.6 nM | 7.2 nM | – | – | – | –
Clc1cc2c(cc1Cl)Oc1cc(Cl)c(Cl)cc1O2 [TCDD, 2,3,7,8-tetrachlorodibenzo-p-dioxin] | – | – | – | – | – | – | 1 nM | – | 7.53 nM | 7.5 nM | 1 nM
